# Legend:
# Format in all cases: in vivo
# [1] = test system: transgenic soybean plants expressing CYP12_var; assay: Icafolin herbicide injury rating, greenhouse spray, CYP12_var soybean; conditions: for Percent Injury 15 DAT / Percent injury 21 DAT: Experiment 1
# Description: (§1) The codon-optimized polynucleotide sequences were placed into plant transformation cassettes with each CYP coding sequence operably-linked to a constitutive expression element comprising the promoter, leader, and intron sequence of Arabidopsis thaliana Ubiquitin 3 (SEQ ID NO:14) and a Medicago truncatula photosystem II terminator (SEQ ID NO:15). Four plant transformation vectors were created, each comprising one of the CYP gene expression cassettes and an aadA selectable marker expression cassette, conferring resistance to the antibiotics spectinomycin and streptomycin. Soybean cultivar AG3555 seed-derived embryo explants were transformed with the vectors by Agrobacterium-mediated transformation using known methods in the art, and transformed plantlets were selected based on growth in the presence of spectinomycin. Plantlets comprising single copy events were grown in the greenhouse to produce R1 seeds. R1 plants were subsequently selected for homozygous CYP-positive plants, either by molecular analysis of young leaf tissue or by seed chipping prior to planting. These selected plants were then screened for tolerance to icafolin herbicide.
# (§2) Herbicide tolerance screens were performed by selecting R1 plants at roughly the V2-V3 developmental stage and applying icafolin herbicide with a track sprayer under standard greenhouse conditions. Two independent transgenic events per transgene were screened. The herbicide was formulated with 1% v/v methylated seed oil (MSO) and 2.5% v/v ammonium sulfate (AMS) and sprayed with a XR nozzle at 15 gallons per […] (GPA) to mimic field conditions. The icafolin used in this Example and in the experiments described in Examples 2-4 was a mixture of the methyl ester forms of the 2R, 4R and 2S, 4S isomers. The icafolin formulation was sprayed at two rates: 5 g active ingredient (ai)/hectare (ha) and 25 g ai/ha. The herbicide treated soybean plants were returned to the greenhouse following spray application and allowed to grow under standard conditions. Plants were rated for herbicide injury at approximately 14 and 21 days after treatment (DAT). Untreated transgenic plants and control (wild-type) plants were used for phenotypic comparison. The herbicide injury rating accounts for plant malformation, stunting, chlorosis, necrosis, and plant death relative to the untreated control plants. An injury rating of approximately 90% or above indicates nearly complete plant death. An injury rating of less than 30% indicates partial tolerance, and an injury rating of less than 20% indicates good tolerance. Injury ratings were collected and analyzed, and photographs of representative plants were taken.
# [2] = test system: transgenic soybean plants expressing CYP14; assay: Icafolin herbicide injury rating, greenhouse spray, CYP14 soybean
# Description: as §1, §2
# [3] = test system: transgenic soybean plants expressing CYP34; assay: Icafolin herbicide injury rating, greenhouse spray, CYP34 soybean; conditions: Table 10
# Description: The codon-optimized gene was placed into plant transformation cassette with the CYP34 coding sequence operably linked to a constitutive expression element comprising the promoter, leader, and intron of Arabidopsis thaliana Ubiquitin 3 (SEQ ID NO:14) and a Medicago truncatula photosystem II terminator (SEQ ID NO:15). A plant transformation vector was created, comprising the CYP34 gene cassette and an aadA selectable marker expression cassette, which confers resistance to the antibiotics spectinomycin and streptomycin. Soybean cultivar AG3555 seed-derived embryo explants were transformed with the vector described above by Agrobacterium-mediated transformation using known methods in the art, and positive-transformed plantlets were selected based on growth in the presence of spectinomycin. Plantlets comprising single copy events were grown in the greenhouse to produce R1 seeds. R1 plants were subsequently selected for the homozygous CYP positive plants, either by molecular analysis of young leaf tissue or by seed chipping prior to planting. These selected plants were then screened for tolerance to the icafolin herbicide.
# Herbicide tolerance screening was performed by selecting R1 plants at roughly the V2-V3 developmental stage and applying the icafolin herbicide in a track sprayer under standard greenhouse conditions. Two independent transgenic events per transgene were selected for screening. The herbicide was formulated with 1% v/v methylated seed oil (MSO) and 2.5% v/v ammonium sulfate (AMS) and sprayed with a XR nozzle at 15 gallons per […] (GPA) to mimic field conditions. The icafolin formulation was sprayed at two rates: 5 g active ingredient (ai)/hectare (ha) and 25 g ai/ha. The treated soybean plants were returned to the greenhouse following spray application and allowed to grow under standard conditions. The plants were rated for herbicide injury at approximately 13 and 21 days after treatment (DAT). Untreated transgenic plants and control (wild-type) plants were used for phenotypic comparison. The herbicide injury rating accounts for plant malformation, stunting, chlorosis, necrosis, and plant death relative to the untreated control plants. An injury rating of approximately 90% or above indicates nearly complete plant death. An injury rating of less than 30% indicates partial tolerance and an injury rating of less than 20% indicates good tolerance. Injury ratings were collected and analyzed, and photographs of representative plants were taken.
# [4] = test system: soybean event transformed with a non-herbicide tolerance construct (negative control); assay: Field trial icafolin injury rating, negative control soybean; conditions: averaged across repetitions and field locations
# Procedure: Soy transgenic plants expressing CYP14 or CYP15 were assayed in small scale field trails across nine sites in the United States for tolerance to icafolin spray applications. The plants were grown in field plots and sprayed during the early vegetative stages when plants were roughly at the V3 stage. The icafolin formulation was sprayed at either a 5 g ai/ha or 25 g ai/ha application rate with 2 treatment replications per location. The plants were rated for herbicide injury at 7, 14, 21, and 28 days after treatment (DAT). A total of 12 events for CYP14 and 11 events for CYP15 were tested. An event transformed with a non-herbicide tolerance construct served as a negative control to provide a comparison for injury.
# [5] = CYP12_var Event 909, 5 g ai/ha icafolin
# [6] = CYP12_var Event 909, 25 g ai/ha icafolin
# [7] = CYP12_var Event 932, 5 g ai/ha icafolin
# [8] = CYP12_var Event 932, 25 g ai/ha icafolin
# [9] = CYP14 Event 267, 5 g ai/ha icafolin, Experiment 2
# [10] = CYP14 Event 267, 5 g ai/ha icafolin, Experiment 1
# [11] = CYP14 Event 267, 25 g ai/ha icafolin, Experiment 2
# [12] = CYP14 Event 267, 25 g ai/ha icafolin, Experiment 1
# [13] = CYP14 Event 280, 5 g ai/ha icafolin, Experiment 2
# [14] = CYP14 Event 280, 25 g ai/ha icafolin, Experiment 2
# [15] = CYP14 Event 309, 5 g ai/ha icafolin, Experiment 2
# [16] = CYP14 Event 309, 5 g ai/ha icafolin, Experiment 1
# [17] = CYP14 Event 309, 25 g ai/ha icafolin, Experiment 2
# [18] = CYP14 Event 309, 25 g ai/ha icafolin, Experiment 1
# [19] = CYP14 Event 324, 5 g ai/ha icafolin, Experiment 2
# [20] = CYP14 Event 324, 25 g ai/ha icafolin, Experiment 2
# [21] = CYP34 Event 326, 5 g ai/ha icafolin
# [22] = CYP34 Event 326, 25 g ai/ha icafolin
# [23] = CYP34 Event 356, 5 g ai/ha icafolin
# [24] = CYP34 Event 356, 25 g ai/ha icafolin
smiles,measurement,setting,value
"C=C[C@]1(C(=O)N[C@H]2CO[C@@H](C(=O)OC)C2)CC(c2cc(F)cc(F)c2)=NO1 (relative stereo) [icafolin, methyl(2R*,4R*)-4-[[(5S)-3-(3,5-difluorophenyl)-5-vinyl-4H-isoxazole-5-carbonyl]amino]tetrahydrofuran-2-carboxylate]",Percent Injury 15 DAT,[1]; [5],39%
same,Percent injury 21 DAT,[1]; [5],50%
same,Percent Injury 15 DAT,[1]; [6],57%
same,Percent injury 21 DAT,[1]; [6],77%
same,Percent Injury 15 DAT,[1]; [7],42%
same,Percent injury 21 DAT,[1]; [7],47%
same,Percent Injury 15 DAT,[1]; [8],69%
same,Percent injury 21 DAT,[1]; [8],80%
same,Tolerance to icafolin,[1]; in vivo,did not show any noticeable tolerance
same,Percent Injury 14 DAT,[2]; [9],32%
same,Percent Injury 15 DAT,[2]; [10],14%
same,Percent injury 21 DAT,[2]; [10],12%
same,Percent injury 21 DAT,[2]; [9],20%
same,Percent Injury 14 DAT,[2]; [11],79%
same,Percent Injury 15 DAT,[2]; [12],39%
same,Percent injury 21 DAT,[2]; [12],47%
same,Percent injury 21 DAT,[2]; [11],57%
same,Percent Injury 14 DAT,[2]; [13],19%
same,Percent injury 21 DAT,[2]; [13],12%
same,Percent Injury 14 DAT,[2]; [14],64%
same,Percent injury 21 DAT,[2]; [14],35%
same,Percent Injury 14 DAT,[2]; [15],37%
same,Percent Injury 15 DAT,[2]; [16],33%
same,Percent injury 21 DAT,[2]; [16],36%
same,Percent injury 21 DAT,[2]; [15],22%
same,Percent Injury 14 DAT,[2]; [17],90%
same,Percent Injury 15 DAT,[2]; [18],71%
same,Percent injury 21 DAT,[2]; [18],81%
same,Percent injury 21 DAT,[2]; [17],89%
same,Percent Injury 14 DAT,[2]; [19],48%
same,Percent injury 21 DAT,[2]; [19],30%
same,Percent Injury 14 DAT,[2]; [20],75%
same,Percent injury 21 DAT,[2]; [20],66%
same,Tolerance to icafolin,[2]; in vivo,unexpected tolerance
same,injury,[2]; in vivo,less than 30%
same,Percent Injury 13 DAT,[3]; [21],12.5%
same,Percent injury 21 DAT,[3]; [21],9.2%
same,Percent Injury 13 DAT,[3]; [22],48.3%
same,Percent injury 21 DAT,[3]; [22],36.7%
same,Percent Injury 13 DAT,[3]; [23],13.3%
same,Percent injury 21 DAT,[3]; [23],12.5%
same,Percent Injury 13 DAT,[3]; [24],35.8%
same,Percent injury 21 DAT,[3]; [24],30.8%
same,Percent Plant Injury (21 DAT),[4]; 5 g ai/ha icafolin,18.9%
same,Percent Plant Injury (21 DAT),[4]; 25 g ai/ha icafolin,62.8%
